Target: RORc ligand binding domain (Homo sapiens (Human), UniProt P51449)
Assay: In vitro RORc Ligand Binding Assay
Conditions: displacement of 6 nM 25-[3H]hydroxycholesterol; 0.6 ug/mL RORc receptor; 3 h at 25° C.
Method: In vitro RORc Ligand Binding Assay
This assay was used to determine a compound's potency in inhibiting activity of RORc by determining, Kiapp, IC50, or percent inhibition values.
On day of the assay, 100 uL of 0.05% CHAPS (in deionized H2O) was added to all wells of the GFB Unifilter plate and allowed soak for 1 h. A wash buffer of 50 mM HEPES (pH 7.4), 150 mM NaCl, and 5 mM MgCl2 was prepared to wash the filter plate. To prepare an assay buffer, BSA was added to the wash buffer to reach 0.01% and DTT was added to reach 1 mM.
The 20× compound stocks were diluted in DMSO with Assay Buffer 4-fold to reach 5× the final test concentration in 25% DMSO (10 uL compound+30 uL Assay Buffer). Solutions were mixed by aspiration several times with a pipette set on 50 uL volume. For the assay, 10 uL of 5× compound stock solutions in 25% DMSO were added to the assay plate in duplicate.
For 25-hydroxycholesterol in 25% DMSO/75% Assay Buffer; 10 uL per well was used for NSB samples. Wells for Total Binding and No Receptor sample determination contained 10 uL of 25% DMSO/75% Assay Buffer per well.
Add 20 uL to all wells to reach 6 nM final concentration in the assay.
Stock receptor solution was diluted in assay buffer to obtain 1.5 ug/mL in Assay Buffer. 20 uL was added to all wells. For No Receptor samples, 20 uL Assay Buffer was substituted for receptor solution.
Assay plates were 96-well polypropylene V-bottom plates. 10 uL of 5× compound in 25% DMSO/75% Assay Buffer was added to Test wells. 10 uL of 25% DMSO/75% Assay Buffer was added to Total Binding or No Receptor wells. 10 uL of 5 uM 25-hydroxycholesterol in 25% DMSO/75% Assay Buffer was added to NSB wells. […] 20 uL of 1.5 ug/mL RORc receptor was added to wells (or 40 uL Assay Buffer to No R wells). Following addition to the wells, the plates were incubated 3 h at 25° C.
Using a Packard Filtermate Harvester, the filter plate were washed 4 times following transfer of the incubated samples. Plates were dry-filtered completely (2 h at 50° C. or overnight at room temperature). 50 uL Microscint 0 was added to all wells and read on Topcount protocol Inverted.
Final concentrations were as follows: 50 mM HEPES buffer (pH 7.4); 150 mM NaCl; 1 mM DTT; 5 mM MgCl2; 0.01% BSA; 5% DMSO; 0.6 ug/mL RORc receptor; 6 nM 25-[^3H]hydroxycholesterol. For NSB wells, 1 uM 25-hydroxycholesterol was also present.

Chain of RORc ligand binding domain (P51449 269-508, species assumed): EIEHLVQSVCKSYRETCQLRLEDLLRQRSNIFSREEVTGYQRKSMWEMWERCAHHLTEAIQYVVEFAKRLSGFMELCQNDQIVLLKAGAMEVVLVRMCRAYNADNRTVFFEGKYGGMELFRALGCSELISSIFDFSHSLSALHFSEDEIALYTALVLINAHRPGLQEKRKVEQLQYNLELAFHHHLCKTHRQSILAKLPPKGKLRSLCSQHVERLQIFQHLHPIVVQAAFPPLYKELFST

SMILES	IC50
CC(C)CN(c1cccc(Cl)c1)S(=O)(=O)c1ccc(Oc2ccc(S(C)(=O)=O)cc2)cc1 [Compound 5, N-(3-Chloro-phenyl)-N-isobutyl-4-(4-mehanesulfonyl-phenoxy)-benzenesulfonamide]	138 nM
CC(C)CN(c1cccc(Cl)c1)S(=O)(=O)c1ccc(-c2ccc(C(N)=O)cc2)cc1 [Compound 15, 4′-[(3-Chloro-phenyl)-isobutyl-sulfamoyl]-biphenyl-4-carboxylic acid amide]	38 nM
CC(C)CN(Cc1ccccc1)S(=O)(=O)c1ccc(-c2ccc(C(N)=O)cc2)cc1 [Compound 7, 4′-(Benzyl-isobutyl-sulfamoyl)-biphenyl-4-carboxylic acid amide]	124 nM
CC(C)CN(c1cccc(Cl)c1)S(=O)(=O)c1ccc(-c2ccc(S(N)(=O)=O)cc2)cc1 [Compound 14, Biphenyl-4,4′-disulfonic acid 4′-amide 4-[(3-chloro-phenyl)-isobutyl-amide]]	103 nM
CC(C)CN(c1ccccc1Cl)S(=O)(=O)c1ccc(-c2ccc(C(N)=O)cc2)cc1 [Compound 16, 4′-[(2-Chloro-phenyl)-isobutyl-sulfamoyl]-biphenyl-4-carboxylic acid amide]	39 nM
